The source of these data is PMC11436757, “BRCA2 stabilises RAD51 and DMC1 nucleoprotein filaments through a conserved interaction mode” (Nature Communications, 2024).

Assay [1] has as its target T1, DMC1 ΔN (Homo sapiens, UniProt Q14565).
T1 construct: DMC1 ΔN (83-340) were cloned into pHAT4; His6 (TEV-cleavable) (N, cleaved yes); made in house; host or cells: E. coli BL21 (DE3)
T1 sequence (Q14565 83-340): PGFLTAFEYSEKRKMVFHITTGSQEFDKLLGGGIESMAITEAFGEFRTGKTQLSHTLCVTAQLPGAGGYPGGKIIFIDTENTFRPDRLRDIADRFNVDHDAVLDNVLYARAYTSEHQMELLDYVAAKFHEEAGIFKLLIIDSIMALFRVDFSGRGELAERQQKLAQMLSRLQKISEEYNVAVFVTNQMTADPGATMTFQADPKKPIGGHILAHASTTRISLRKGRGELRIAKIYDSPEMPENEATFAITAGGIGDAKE
Put plainly: Amylose pull-down of DMC1 ΔN with MBP-BRCA2 fusions. Type of assay: binding. The note with it: recombinant co-expression with MBP-BRCA2 fusion. From the text:
(§1) For affinity pulldown experiments, MBP-fusions of BRCA2 fragments (Ex14, amino-acids 2387-2420, Ex14-Tr, amino acids 2401-2414, Ex27, amino acids 3270-3315, BRC4, amino acids 1519-1551) were cloned into pMAT11 vectors[54] and co-expressed with DMC1 ΔN, DMC1 ΔN loop mutant (in which DMC1 amino acids 147-GAGGYPG-153 and 178-NVDHDA-183 were replaced by the cognate sequences of RAD51 148-IDRGGGE-154 and 179-GLSGSD-184), RAD51 ΔN, RAD51 ΔN loop mutant (the reverse switch of DMC1 ΔN loop mutant), and RAD51. MBP-fusions and complexes were purified through amylose affinity chromatography.

The target of another assay is T2, DMC1 ΔN loop mutant (Homo sapiens, UniProt Q14565, A148D/A183D/D180S/D182S/G147I/G149R/G153E/H181G/N178G/P152G/V179L/Y151G).
T2 construct: DMC1 ΔN (83-340) were cloned into pHAT4; made in house
T2 sequence (Q14565 83-340 G147I/A148D/G149R/Y151G/P152G/G153E/N178G/V179L/D180S/H181G/D182S/A183D limits assumed): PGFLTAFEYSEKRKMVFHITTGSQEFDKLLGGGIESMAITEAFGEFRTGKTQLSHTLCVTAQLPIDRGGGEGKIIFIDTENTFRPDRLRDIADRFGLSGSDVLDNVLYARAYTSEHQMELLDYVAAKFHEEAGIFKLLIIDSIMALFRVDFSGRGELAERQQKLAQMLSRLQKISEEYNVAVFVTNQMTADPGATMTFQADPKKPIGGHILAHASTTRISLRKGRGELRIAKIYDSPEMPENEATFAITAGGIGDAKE
Put plainly: Amylose pull-down of DMC1 ΔN loop mutant with MBP-BRCA2 fusions. The class given is binding. The following applies: recombinant co-expression with MBP-BRCA2 fusion.
Source text: as §1

Another assay relates to RAD51 ΔN. Put plainly: Amylose pull-down of RAD51 ΔN with MBP-BRCA2 fusions. The note with it: recombinant co-expression with MBP-BRCA2 fusion. Type of assay: binding.
Source text: as §1

Assay [2] has as its target T1, DMC1 ΔN. Put plainly: Microscale thermophoresis (MST), BRCA2 peptides and DMC1 ΔN. Type of assay: binding. The following applies: for Kd: MST from initial fluorescence, labelled DMC1 ΔN 150 nM, 10 mM HEPES pH 8.0, 150 mM NaCl, 0.05 % Tween-20, ~22 °C, mean, n = 3 independent experiments. The method, then: DMC1 ΔN and DMC1 ΔN loop mutant were labelled in 10 mM HEPES pH 8.0, 150 mM NaCl with an amine reactive fluorescent dye (MonolithTM Protein Labelling Kit BLUE-NHS, Nanotemper GmbH). A serial dilution of titrant (peptide) was prepared in 10 mM HEPES pH 8.0, 150 mM NaCl, 0.05 % Tween-20. The concentration of labelled DMC1 ΔN or DMC1 ΔN loop mutant were constant at 150 nM and the concentration of the interacting peptide was titrated in 1:1 dilutions starting from 750 µM. An equal volume (10 µl) of the serial dilution and of the diluted labelled DMC1 were mixed and loaded in glass capillaries (MonolithTM NT.115 MST Premium Coated Capillaries, Nanotemper GmbH). The initial fluorescence and the thermophoretic mobility were measured on a Monolith NT.115 system (NanoTemper Technologies). The excitation power was 45 % and MST power was 60 % at room temperature (~22 °C). Laser on and off times were set at 5 and 30 seconds, respectively. Data analysis was performed with NT Affinity Analysis software.
As a change in initial fluorescence was detected, SDS denaturation (SD) tests were performed according to the manufacturer’s instructions to determine whether these changes were ligand-induced and whether the data could therefore be used to derive affinity measurements. Briefly, 7 µl of the samples containing the three highest and three lowest concentrations of peptide were mixed with 7 µl of denaturation buffer (4 % SDS, 40 mM DTT). After incubating each for 5 minutes at 95 °C to denature the proteins and subject to brief centrifugation, the samples were loaded onto Premium Coated Capillaries and their initial fluorescence measurements recorded. […] Initial fluorescence readings were used to derive binding affinities.
(In general: MST reads how a fluorescent partner responds to local heating, with and without ligand.)

For another assay, the system named is RAD51 ΔN loop mutant. Put plainly: Amylose pull-down of RAD51 loop mutant with MBP-BRCA2 fusions. The following applies: RAD51 with DMC1's PhePP-binding loops; MBP-BRCA2 fusion.
Source text: as §1

The subject of assay [3] is RAD51 L180E-ssDNA (polydT) filaments. Put plainly: EMSA, protection of RAD51 L180E-ssDNA (polydT) filaments from BRC4-mediated disruption. The class given is biochemical. The note with it: 100-nt polydT. The method, then: To form nucleoprotein filaments, DMC1 and RAD51 was incubated with fluorescent 100-base ssDNA (5’-FAM- […]-3’) at the concentrations indicated in the figures for 30 minutes at 4 °C in reaction buffer. For DMC1, reaction buffer is 25 mM TEA (triethanolamine) pH 7.5, 1 mM ATP, 2 mM MgCl2, 0.1 mg/ml BSA, 2 mM DTT, 200 mM KCl. For RAD51, reaction buffer is 50 mM TEA (triethanolamine), 2 mM ATP, 0.5 mM MgCl2, 2 mM DTT. For assays requiring incomplete nucleoprotein filament assembly, the reaction buffer consisted of 50 mM TAE (tris, acetate, EDTA) pH 7.5, 2 mM ATP, 2 mM MgCl2, 2 mM DTT. In nucleoprotein formation stimulation assays or supershift experiments, BRCA2Ex14 or BRCA2Ex14-AAA were added for a further 30 min at 4 °C. […] Glycerol was added at a final concentration of 3%, and samples were analysed by electrophoresis on a 1% (w/v) (for DMC1) or 0.66% (w/v) (for RAD51) agarose gel in 0.5x TAE pH 8.0 at 20–40 V for ~4 h at 4 °C. DNA was detected by FAM using a Typhoon^TM FLA 9500 (GE Healthcare), with 473 nm laser at excitation wavelength 490 nm and emission wavelength 520 nm, using the LPB filter and a PMT voltage of 500 V. To analyse RAD51 nucleoprotein filaments assembled upon 100-base poly(dT) ssDNA, gels were stained post-run using SYBR^TM Gold Nucleic Acid Gel Stain (Invitrogen) and detected using a Typhoon^TM FLA 9500 (GE Healthcare).
(A gel shift assay detects complexes by their altered migration in electrophoresis.)

As a reminder, the Kd is the concentration at which binding is half-saturated. Lower therefore signals a tighter complex.

“Also recorded” adds a separate entry of the source. No end group written: not given here.

Turning to “ATRNEKMRHLITTGRPTKVFVPPFKTKSHFHRVE [Ex14]”, the binding in pull-down result on DMC1 ΔN [1] was “bind”; at DMC1 ΔN loop mutant, “abolished its ability to bind Ex14; also recorded: blocked Ex14-”; in the assay on RAD51 ΔN it was “binds selectively to BRCA2 Ex27 rather than Ex14”; with RAD51 ΔN loop mutant, “failed to”. In addition, the Kd at DMC1 ΔN [2] is 30.4 µM. On DMC1 ΔN [2] (MST, DMC1 ΔN), the “affinity of Ex14 relative to Ex27” value is recorded as “over threefold higher affinity than Ex27”.
In the case of “Ex27: BRCA2 exon 27 PhePP peptide, amino acids 3270-3315 (ALDFLSRLPLPPPVSPICTFVSPAAQKAFQPPRSCGTKYETPIKKK; UniProt P51587 3270-3315, looked up, fragment)”, the binding in pull-down entry was “not” in the assay with DMC1 ΔN [1], “failed to bind; also recorded: failed to interact with Ex27” with DMC1 ΔN loop mutant, “binds selectively” with RAD51 ΔN and “failed to” in the assay with RAD51 ΔN loop mutant. Moreover, the Kd with DMC1 ΔN [2] is above 96.2 µM. Also, the “protection of RAD51 L180E-ssDNA (polydT) filaments from BRC4-mediated disruption” value in assay [3] is listed as “not protected; also recorded: almost entirely lost; also recorded: abrogated”.
